According to publication PMC4582009 (Bioorganic & medicinal chemistry, 2015):

Assays:
[1] = target: cloned human κ opioid receptor (Homo sapiens, UniProt P41145); test: biochemical; assay type: biochemical; conditions: for times less potent than JDTic as a κ opioid receptor antagonist: ratio of κ Ke values vs JDTic
[2] = target: cloned human δ opioid receptor (Homo sapiens, UniProt P41143); test: biochemical
[3] = system: opioid receptors
[4] = target: cloned human μ opioid receptor (Homo sapiens, UniProt P35372); assay type: biochemical; conditions: ratio of μ Ke values vs 3b
Sequence of cloned human μ opioid receptor (P35372 whole entry): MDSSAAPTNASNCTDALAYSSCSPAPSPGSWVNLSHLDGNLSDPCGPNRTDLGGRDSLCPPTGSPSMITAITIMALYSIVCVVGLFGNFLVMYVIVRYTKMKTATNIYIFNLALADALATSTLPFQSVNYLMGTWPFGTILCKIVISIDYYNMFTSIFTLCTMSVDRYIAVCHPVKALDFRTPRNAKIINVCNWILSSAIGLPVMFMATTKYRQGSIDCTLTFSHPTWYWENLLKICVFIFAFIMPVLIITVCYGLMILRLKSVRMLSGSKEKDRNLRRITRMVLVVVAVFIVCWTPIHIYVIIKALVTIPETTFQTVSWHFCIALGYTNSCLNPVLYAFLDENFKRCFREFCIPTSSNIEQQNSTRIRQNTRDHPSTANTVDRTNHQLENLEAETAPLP

Sequence of cloned human δ opioid receptor (P41143 whole entry): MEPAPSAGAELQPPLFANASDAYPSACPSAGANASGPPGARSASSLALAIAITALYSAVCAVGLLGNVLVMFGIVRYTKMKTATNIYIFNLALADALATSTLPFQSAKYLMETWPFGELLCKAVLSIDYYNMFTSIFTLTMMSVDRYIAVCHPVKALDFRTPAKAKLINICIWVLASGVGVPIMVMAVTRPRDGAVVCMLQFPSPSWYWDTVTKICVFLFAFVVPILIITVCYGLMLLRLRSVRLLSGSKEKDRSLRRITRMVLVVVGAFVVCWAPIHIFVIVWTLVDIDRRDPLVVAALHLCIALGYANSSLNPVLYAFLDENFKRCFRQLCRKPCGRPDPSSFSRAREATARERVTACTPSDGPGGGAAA
Sequence of cloned human κ opioid receptor (P41145 whole entry): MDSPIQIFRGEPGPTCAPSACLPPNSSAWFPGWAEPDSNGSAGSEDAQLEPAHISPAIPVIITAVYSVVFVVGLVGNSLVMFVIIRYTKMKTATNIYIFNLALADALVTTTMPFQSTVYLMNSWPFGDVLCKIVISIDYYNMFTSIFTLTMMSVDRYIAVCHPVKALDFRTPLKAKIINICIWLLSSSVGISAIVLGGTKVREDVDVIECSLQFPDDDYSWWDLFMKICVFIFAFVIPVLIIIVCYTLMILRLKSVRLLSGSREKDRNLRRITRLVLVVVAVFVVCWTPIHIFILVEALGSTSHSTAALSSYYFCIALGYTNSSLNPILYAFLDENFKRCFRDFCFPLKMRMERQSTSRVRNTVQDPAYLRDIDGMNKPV

CC(C)[C@@H](CN1CCC(C)(c2cccc(O)c2)CC1)NC(=O)[C@H]1Cc2ccc(O)cc2CN1 [Compound 4a, (3R)-7-Hydoxy-N-[(1S)-1-{[4-(3-hydroxyphenyl)-4-methylpiperidin-1-yl]methyl}-2-methylpropyl]-1,2,3,4-tetrahydroisoquinoline-3-carboxamide]
times less potent than JDTic as a κ opioid receptor antagonist [1]: 35 fold | Kb [2]: 927 ± 350 nM

CC(C)[C@@H](CN1CCC(C)(c2cccc(F)c2)CC1)NC(=O)[C@H]1Cc2ccc(O)cc2CN1 [Compound 4b, (3R)-N-[(1S)-1-{[4-(3-fluorophenyl)-4-methylpiperidin-1-yl]methyl}-2-methylpropyl]-7-hydroxy-1,2,3,4-tetrahydroisoquinoline-3-carboxamide]
times less potent than JDTic as a κ opioid receptor antagonist [1]: 9 fold | functional profile in the [35S]GTPγS test [3]: pure opioid antagonist

CC[C@H](C)[C@@H](CN1CCC(C)(c2cccc(F)c2)CC1)NC(=O)[C@H]1Cc2ccc(O)cc2CN1 [Compound 4c, (3R)-N-[(1S,2S)-1-{[4-(3-Fluorophenyl)-4-methylpiperidin-1-yl]methyl}-2-methylbutyl]-7-hydroxy-1,2,3,4-tetrahydroisoquinoline-3-carboxamide]
δ/κ [1]: 27,363 | μ/κ [1]: 342 | Kb [2]: 903 ± 200 nM

CC(C)[C@@H](CN1CCC(c2ccccc2)CC1)NC(=O)[C@H]1Cc2ccc(O)cc2CN1 [Compound 4e, (3R)-7-Hydroxy-N-{(1S)-2-methyl-1-[(4-phenylpiperidin-1-yl]methyl]propyl}-1,2,3,4-tetrahydroisoquinoline-3-carboxamide]
Kb [1]: 0.051 ± 0.01 nM | times less potent than 3a as a κ antagonist ([1]; ratio of κ Ke values vs 3a): 2 fold | times less potent than JDTic as a κ opioid receptor antagonist [1]: 2.6 fold | Kb [2]: 281 ± 44 nM

CC(C)[C@@H](CN1CCC(c2cccc(F)c2)CC1)NC(=O)[C@H]1Cc2ccc(O)cc2CN1 [Compound 4f, (3R)-N-[(1S)-1-{[4-(3-Fluorophenyl)piperidin-1-yl]methyl}-2-methylpropyl]-7-hydroxy-1,2,3,4-tetrahydroisoquinoline-3-carboxamide]
times more potent as a μ antagonist than 3b [4]: 4 fold
